Experimental data: patent US8030452B2, “IFBM'S to promote the specific attachment of target analytes to the surface of orthopedic implants” (priority 2004, dated 2011)
pEC50: −log10 of the molar value.

Key:
BMP-2 = target: T1, BMP-2 (Homo sapiens, UniProt P12643); assay: Binding of biotinylated peptides to BMP-2 (FIG. 12); details: biotinylated peptide
T1 construct: purchased Medtronic
T1 sequence (P12643 283-396): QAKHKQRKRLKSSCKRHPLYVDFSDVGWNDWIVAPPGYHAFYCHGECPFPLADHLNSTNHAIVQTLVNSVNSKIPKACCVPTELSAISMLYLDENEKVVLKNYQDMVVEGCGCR
Description: Briefly, peptide stock solutions were made by dissolving the powder in 100% DMSO to make a 10 mM solution of peptide, water was then added for a final stock concentration of peptide of 1 mM in 10% DMSO. Serial dilutions of the peptide were made in PBS-T. A dilution series of BMP-2 with concentrations ranging from 100 nM to 0.1 nM was immobilized onto the wells of microtiter plates (Immulon-4® HBX from Dynex Technologies, Chantilly, Va.) and blocked with 1% BSA. […] The […] were washed 3 times with PBS-T. Streptavidin-alkaline phosphatase (SA-AP) from USB (United States Biochemical, catalog #11687) was added (1:1000 in PBS-T) and incubated 1 hour at room temperature with shaking. The plates were washed 3 times with PBS-T and the amount of peptide:SA-AP was determined by adding PNPP (Sigma-Aldrich, Inc., SigmaFast tablets, catalog #N1891) and allowing the color to develop for about 10 minutes.
To confirm these BMP binding results, the peptides were also tested in an alternate assay format in which the peptide and BMP2 were allowed to bind in solution and then assayed. Briefly, the peptides were synthesized with a biotin group attached to the ε amino group of a lysine residue at the C-terminus of the peptide. […] The plates were washed with TBS-Tween™ 20 and the antibody binding was detected using the chromogenic AP substrate pNPP. […]

BMP-4 = target: T2, BMP-4 (Homo sapiens, UniProt P12644); assay: Binding of biotinylated peptides to BMP-4 (FIG. 12); details: biotinylated peptide
T2 sequence (P12644 293-408): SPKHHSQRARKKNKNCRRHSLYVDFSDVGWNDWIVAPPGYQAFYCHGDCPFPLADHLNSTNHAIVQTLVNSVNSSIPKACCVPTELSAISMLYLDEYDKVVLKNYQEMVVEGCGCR

BMP-7 = target: T3, BMP-7 (Homo sapiens, UniProt P18075); assay: Binding of biotinylated peptides to BMP-7 (FIG. 12); details: biotinylated peptide
T3 sequence (P18075 293-431): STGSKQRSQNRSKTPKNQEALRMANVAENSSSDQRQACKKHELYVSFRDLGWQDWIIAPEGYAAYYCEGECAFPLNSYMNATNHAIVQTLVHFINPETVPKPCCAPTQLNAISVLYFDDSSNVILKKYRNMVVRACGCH

[1] = for binding to titanium: FIG. 3; for pEC50: read-out: [peptide] ½ maximal signal (relative affinity for titanium), biotin-conjugated peptide, titanium beads, 1 hour room temperature, absorbance 405 nm
Description: AFF6007 and AFF6010 were prepared at 200 μM.
Beads were washed two times with PBS/Tween™ 20.

BMP on collagen sponge = BMP on collagen sponge (Homo sapiens, UniProt P12643)
Description: To each well, a 2/16″ diameter collagen sponge (Medtronic) was added. The collagen and peptide solutions were allowed to incubate for 1.5 hours at room temperature. Sponges were then rinsed three times with 200 μL Medtronic buffer at 2200 rpm for 1 minute. To each sponge, a primary antibody directed at BMP (diluted 1:1000; R&D Systems #MAB3552) was added for 1 hour at room temperature. A secondary antibody conjugated to alkaline phosphatase (1:5000) was then incubated in the system for 0.5 hour at room temperature.

SRGGEAAAGAWVSFSALESSR [compound 2007]
binding to BMP-2 (BMP-2): bound
binding to BMP-4 (BMP-4): bound
binding to BMP-7 (BMP-7): bound

SSDWGVVASAWDAFEALDASR [compound 2011]
binding to BMP-2 (BMP-2): bound
binding to BMP-4 (BMP-4): bound
binding to BMP-7 (BMP-7): bound

SSSDKSHKHWYSYESKYGGSGSSGK [AFF6010]
decrease of affinity for titanium on elimination of the cysteine residues of AFF6007 ([1]; AFF6010 versus AFF6007): about 10 fold
binding to titanium [1]: bind to titanium
pEC50 [1]: 5.52

DVNSIWMSRVIEWTYDSGSSGKSSFEPLRFPLKGVPVSR-NH2 [AFF7006]
amount of BMP-2 retained on collagen with increasing IFBM concentration (BMP on collagen sponge): leads to a larger amount of BMP-2 that is retained on the collagen

SSSVDLYFPLKGDVVSRGSSGKDVNSIWMSRVIEWTYDS-NH2 [AFF7009]
amount of BMP-2 retained on collagen with increasing IFBM concentration (BMP on collagen sponge): leads to a larger amount of BMP-2 that is retained on the collagen

DVNSIWMSRVIEWTYDSGSSGKSRSSDSAFSSFSALEGSVVSR-NH2 [AFF7008]
BMP retained on collagen sponge (BMP on collagen sponge): increase the amount of BMP on the sponge when compared to no IFBM, but to a lesser extent than AFF7010

SSSDKCHKHWYCYESKYGGSGSSGK [AFF6007]
binding to titanium [1]: bind to titanium
pEC50 [1]: 6.46

DVNSIWMSRVIEWTYDSGSSGKSSSVDLYFPLKGDVVSR-NH2 [AFF7010]
BMP retained on collagen sponge (BMP on collagen sponge): retains more BMP on the sponge than the sponges without IFBM
amount of BMP-2 retained on collagen with increasing IFBM concentration (BMP on collagen sponge): leads to a larger amount of BMP-2 that is retained on the collagen

DVNSIWMSRVIEWTYDSGSSGKSSDWGVVASAWDAFEALDASR-NH2 [AFF7017]
BMP retained on collagen sponge (BMP on collagen sponge): increase the amount of BMP on the sponge when compared to no IFBM, but to a lesser extent than AFF7010

SSFEPLRFPLKGVPVSRGSSGKDVNSIWMSRVIEWTYDS-NH2 [AFF7005]
amount of BMP-2 retained on collagen with increasing IFBM concentration (BMP on collagen sponge): leads to a larger amount of BMP-2 that is retained on the collagen
